Measurements taken from PubChem BioAssay (NCI).
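1) Cells in 96-well plates. 2) Compound, 48 h, 5 concentrations. 3) Linear interpolation between surrounding doses. 4) Unreached endpoint = highest concentration. Abbreviation: GI50, concentration required for 50% inhibition of growth. At the TGI there is no net growth.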

test system: HS 578T breast; assay: inhibition of tumour cell growth, NCI panel, 48 h

Row | SMILES | GI50 [µM] | TGI [µM]
1 | Cc1ccc2[nH]c(C(=O)NN3C(=O)C(C)SC34CCCC(C)C4)c(-c3ccccc3)c2c1 (stereo not drawn) | 87.8 | > 100

test system: NCI-H522 lung; assay: inhibition of tumour cell growth, NCI panel, 48 h

Row | SMILES | TGI | GI50
2 | COc1ccc(/C(Cl)=C(\C=O)c2ccc([N+](=O)[O-])cc2)cc1 | > 46.8 µM | –
3 | C=C(C)C1CCC2(C(=O)O)CCC3(C)C(CCC4C5(C)CCC(OC(=O)NCc6ccccc6)C(C)(C)C5CCC43C)C12 (stereo not drawn) | 10.4 µM | 0.15 µM
4 | Cc1ccc(-c2cc(=O)c3cc(C)c(C)c(C(=O)O)c3o2)cc1C | > 100 µM | –
5 | O=C(/C=C/c1c(O)ccc2ccccc12)c1ccccc1 | > 100 µM | –
6 | Cc1nc2ccccc2c(=O)n1-c1ccccc1F | > 100 µM | –
7 | Fc1ccc(C2SCc3nc4ccccc4n32)cc1Cl (stereo not drawn) | 35.2 µM | –
8 | CC1=N/C(=C\c2cccc([N+](=O)[O-])c2)C(=O)O1 | > 100 µM | –
9 | Cn1c2ccccc2c2c3[nH]c(=O)[nH]c(=O)c3c3c4ccccc4n(C)c3c21 | 12.8 µM | 1.9 µM
10 | CC1(C)N=C(N)N=C(N)N1c1ccc(OCc2ccc(S(=O)(=O)F)c(Cl)c2)c(Cl)c1 | > 100 µM | 3.28 µM
11 | CO[C@H]1C=C[C@@]23c4cc5c(cc4CO[C@]2(O)CN(C)[C@H]3C1)OCO5 | > 100 µM | –
12 | CC(C)N1CN(C(C(=O)N[C@@H]2C(=O)N3C2SC(C)(C)C3C(=O)O)c2ccccc2)CSC1=S (stereo partly drawn) | 72.1 µM | –
13 | CC(C)c1cc2c(O)c(c1)Cc1cc(C(C)C)cc(c1O)Cc1cc(C(C)C)cc(c1O)Cc1cc(C(C)C)cc(c1O)C2 | > 100 µM | –
14 | COc1ccc(/C=C\c2cc(OC)c(OC)c(OC)c2)cc1OC(=O)NCCN(C)C | 0.000483 µM | –
15 | CCCCOC(=O)NC(=O)c1cn(C2CCCCC2)c(=O)[nH]c1=O | > 100 µM | –
16 | COc1cc2c(c(OC)c1)C1(CC(CC#N)C2)SCCS1 (stereo not drawn) | 4.69 µM | –
17 | CCOC(=O)CCn1[nH]c(=O)c(Cl)c(Cl)c1=O | > 100 µM | –
18 | COc1cc2c(c(OC)c1OC)C(=O)[C@@H]1c3ccc([N+](=O)[O-])cc3C(=O)N(CCCBr)[C@H]21 | 25.2 µM | 4.18 µM
19 | COc1ccc(CNc2nc3cc(C(F)(F)F)ccc3nc2C)cc1OC | 92.7 µM | –

Row | SMILES | TGI | GI50
20 | C/C=C1/C(=C/c2[nH]c(/C=c3\[nH]/c(=C/C4=NC(=O)C(CC)=C4C)c(C)c3CCC(=O)O)c(CCC(=O)O)c2C)NC(=O)C1C (stereo not drawn) | > 150 µg/mL | > 150 µg/mL
21 | COc1cccc(/C=C2\C(=O)N(C(=O)c3ccc(NC(C)=O)cc3)N=C2C)c1 | > 100 µM | –
22 | N#CCc1ccc(C(C#N)/C(CCCC(=O)Nc2cccc([N+](=O)[O-])c2)=N/NC(N)=S)cc1 (stereo not drawn) | > 100 µM | –
23 | COC(C(O)c1ccc2c(c1)OCO2)P(=O)(c1ccccc1)c1ccccc1 (stereo not drawn) | > 100 µM | –
24 | NCCCn1c2c(c3ccc([N+](=O)[O-])cc3c1=O)C(=O)c1cc(Br)ccc1-2 | – | 0.29 µM
25 | N#C/C(=C\c1cc2ccccc2c2ccccc12)c1ccccc1 | > 29.9 µM | –
26 | CCOc1ccc2c(c1)[n+]([O-])c(-c1nc3ccccc3s1)c(N)[n+]2[O-] | 63.3 µM | –
27 | COC(=O)C12C3C4C1C1C2C3C41NC(=O)c1csc([C@@H](C[C@H](C(C)C)N(C)C(=O)[C@@H](NC(=O)[C@H]2CCCCN2C)C2CC2)OC(C)=O)n1 (stereo partly drawn) | 1.27 µM | 0.00401 µM
28 | COc1ncc(-c2ccc3ncnc(Nc4cccc(Cl)c4)c3c2)cc1NS(=O)(=O)CCN1CCOCC1 | 8.6 µM | 0.402 µM
29 | c1cc[c]([Pb]([c]2ccccc2)[c]2ccccc2)cc1 | 15.1 µM | 2.53 µM
30 | COc1ccc2nc3cc(Cl)ccc3c(NCCN)c2c1 | 3.56 µM | 1.73 µM
31 | CCC(=O)c1c(C(F)(F)F)n([O-])c2ccc(C)cc2[n+]1=O | 11.2 µM | 1.62 µM
32 | O=C(O)[C@@H]1CCCCN1Cc1cc2cc3c(cc2c2cc(OCc4ccccc4)ccc12)OCO3 | 18.4 µM | 4.89 µM
33 | COc1ccc(C2SCC(=O)N2NC(=O)Nc2c(C)nc3ccccn23)cc1 (stereo not drawn) | 95.4 µM | 32.8 µM
34 | COC1=CC2(C=CC1=O)c1cc(OC)c(OC)cc1CCN2C(=O)c1ccccc1 (stereo not drawn) | > 100 µM | –
35 | Cc1ccc2[nH]c(C(=O)NN3C(=O)C(C)SC34CCCC(C)C4)c(-c3ccccc3)c2c1 (stereo not drawn) | > 100 µM | 78 µM
36 | Cc1[nH]c2ccccc2c1C1Cc2ccccc2N1C(=O)/C(Cl)=C/c1ccccc1 (stereo not drawn) | > 100 µM | –

test system: OVCAR-3 ovarian; assay: inhibition of tumour cell growth, NCI panel, 48 h

Row | SMILES | TGI [µM] | GI50 [µM]
37 | COc1ccc(/C(Cl)=C(\C=O)c2ccc([N+](=O)[O-])cc2)cc1 | 53.4 | –
38 | C=C(C)C1CCC2(C(=O)O)CCC3(C)C(CCC4C5(C)CCC(OC(=O)NCc6ccccc6)C(C)(C)C5CCC43C)C12 (stereo not drawn) | 13.9 | 2.04
39 | Cc1ccc(-c2cc(=O)c3cc(C)c(C)c(C(=O)O)c3o2)cc1C | > 100 | –
40 | O=C(/C=C/c1c(O)ccc2ccccc12)c1ccccc1 | > 100 | –
41 | Cc1nc2ccccc2c(=O)n1-c1ccccc1F | > 100 | –
42 | C=C[C@H]1C[C@@H]2C[C@@H]3[C@H]4C/C=C\C(=O)NCCCC5NC(=O)C(=C(O)/C=C/[C@@H]4CC(=O)[C@H]3[C@@H]2[C@H]1C)C5=O (stereo partly drawn) | 0.334 | 0.183
43 | Cn1c2ccccc2c2c3[nH]c(=O)[nH]c(=O)c3c3c4ccccc4n(C)c3c21 | 7 | 2.38
44 | CC1(C)N=C(N)N=C(N)N1c1ccc(OCc2ccc(S(=O)(=O)F)c(Cl)c2)c(Cl)c1 | > 100 | 4.69
45 | CO[C@H]1C=C[C@@]23c4cc5c(cc4CO[C@]2(O)CN(C)[C@H]3C1)OCO5 | > 100 | –
46 | CC(C)N1CN(C(C(=O)N[C@@H]2C(=O)N3C2SC(C)(C)C3C(=O)O)c2ccccc2)CSC1=S (stereo partly drawn) | > 100 | –
47 | CC(C)c1cc2c(O)c(c1)Cc1cc(C(C)C)cc(c1O)Cc1cc(C(C)C)cc(c1O)Cc1cc(C(C)C)cc(c1O)C2 | > 100 | –
48 | COc1ccc(/C=C\c2cc(OC)c(OC)c(OC)c2)cc1OC(=O)NCCN(C)C | 0.00347 | –
49 | CCCCOC(=O)NC(=O)c1cn(C2CCCCC2)c(=O)[nH]c1=O | > 100 | –
50 | CC(C)CCCC(=O)CCCCCCC(=O)CCN(O)C(=O)C(N)CO (stereo not drawn) | 41.6 | –
51 | COc1cc2c(c(OC)c1)C1(CC(CC#N)C2)SCCS1 (stereo not drawn) | > 100 | –
52 | CCOC(=O)CCn1[nH]c(=O)c(Cl)c(Cl)c1=O | > 100 | –
53 | COc1cc2c(c(OC)c1OC)C(=O)[C@@H]1c3ccc([N+](=O)[O-])cc3C(=O)N(CCCBr)[C@H]21 | 12.4 | 2.02
54 | COc1ccc(CNc2nc3cc(C(F)(F)F)ccc3nc2C)cc1OC | > 100 | –

Row | SMILES | TGI [µM] | GI50 [µM]
55 | COc1cccc(/C=C2\C(=O)N(C(=O)c3ccc(NC(C)=O)cc3)N=C2C)c1 | > 100 | –
56 | N#CCc1ccc(C(C#N)/C(CCCC(=O)Nc2cccc([N+](=O)[O-])c2)=N/NC(N)=S)cc1 (stereo not drawn) | > 100 | –
57 | COC(C(O)c1ccc2c(c1)OCO2)P(=O)(c1ccccc1)c1ccccc1 (stereo not drawn) | 40.3 | –
58 | NCCCn1c2c(c3ccc([N+](=O)[O-])cc3c1=O)C(=O)c1cc(Br)ccc1-2 | – | 0.254
59 | CC(C)c1ccc(C(c2ccc(OCC(=O)O)cc2)c2ccc(C(C)C)cc(=O)c2O)c(O)c(=O)c1 | 8.31 | –
60 | N#C/C(=C\c1cc2ccccc2c2ccccc12)c1ccccc1 | > 25.6 | –
61 | CCOc1ccc2c(c1)[n+]([O-])c(-c1nc3ccccc3s1)c(N)[n+]2[O-] | > 100 | –
62 | COc1ccc2c3c(coc13)C(CCC(=O)O)CC2 (stereo not drawn) | > 100 | –
63 | COC(=O)C12C3C4C1C1C2C3C41NC(=O)c1csc([C@@H](C[C@H](C(C)C)N(C)C(=O)[C@@H](NC(=O)[C@H]2CCCCN2C)C2CC2)OC(C)=O)n1 (stereo partly drawn) | 0.86 | 0.0117
64 | c1cc[c]([Pb]([c]2ccccc2)[c]2ccccc2)cc1 | 23.8 | 10.4
65 | CC(=O)N1C/C(=C\c2ccc(N(C)C)cc2)C(=O)/C(=C/c2ccc(N(C)C)cc2)C1 | 56.3 | –
66 | CCC(=O)c1c(C(F)(F)F)n([O-])c2ccc(C)cc2[n+]1=O | 15 | 3.88
67 | O=C(O)[C@@H]1CCCCN1Cc1cc2cc3c(cc2c2cc(OCc4ccccc4)ccc12)OCO3 | 36.2 | 6.79
68 | COc1ccc(C2SCC(=O)N2NC(=O)Nc2c(C)nc3ccccn23)cc1 (stereo not drawn) | > 100 | > 100
69 | COC1=CC2(C=CC1=O)c1cc(OC)c(OC)cc1CCN2C(=O)c1ccccc1 (stereo not drawn) | > 100 | –
70 | Cc1ccc2[nH]c(C(=O)NN3C(=O)C(C)SC34CCCC(C)C4)c(-c3ccccc3)c2c1 (stereo not drawn) | > 100 | 97.3
71 | Cc1[nH]c2ccccc2c1C1Cc2ccccc2N1C(=O)/C(Cl)=C/c1ccccc1 (stereo not drawn) | > 100 | –

test system: RXF 393 renal; assay: inhibition of tumour cell growth, NCI panel, 48 h

Row | SMILES | TGI [µM] | GI50 [µM]
72 | COc1ccc(/C(Cl)=C(\C=O)c2ccc([N+](=O)[O-])cc2)cc1 | 38.6 | –
73 | Cc1ccc(-c2cc(=O)c3cc(C)c(C)c(C(=O)O)c3o2)cc1C | > 100 | –
74 | O=C(/C=C/c1c(O)ccc2ccccc12)c1ccccc1 | > 100 | –
75 | Cc1nc2ccccc2c(=O)n1-c1ccccc1F | > 100 | –
76 | C=C[C@H]1C[C@@H]2C[C@@H]3[C@H]4C/C=C\C(=O)NCCCC5NC(=O)C(=C(O)/C=C/[C@@H]4CC(=O)[C@H]3[C@@H]2[C@H]1C)C5=O (stereo partly drawn) | 0.308 | 0.165
77 | Fc1ccc(C2SCc3nc4ccccc4n32)cc1Cl (stereo not drawn) | 50 | –
